Where “and” joins values, the source holds several entries; their conditions need not be identical. Equal values may be shown once.
What was measured:
Type in all cases: cell-based
[1] = biological target: panel of 320 non-olfactory GPCRs (Homo sapiens, UniProt P61073)
[2] = biological target: panel of 320 non-olfactory GPCRs (Homo sapiens, UniProt P30556)
[3] = biological target: panel of 320 non-olfactory GPCRs (Homo sapiens, UniProt Q15743)
[4] = biological target: panel of 320 non-olfactory GPCRs (Homo sapiens, UniProt Q96P67)
[5] = biological target: panel of 320 non-olfactory GPCRs (Homo sapiens, UniProt P25105)
[6] = biological target: panel of 320 non-olfactory GPCRs (Homo sapiens, UniProt Q96P66)
[7] = biological target: panel of 320 non-olfactory GPCRs (Homo sapiens, UniProt Q9NZD1)
[8] = biological target: panel of 320 non-olfactory GPCRs (Homo sapiens, UniProt Q7Z7M1)
[9] = biological target: panel of 320 non-olfactory GPCRs (Homo sapiens, UniProt P30989)
[10] = biological target: panel of 320 non-olfactory GPCRs (Homo sapiens, UniProt P32245)
[11] = biological target: panel of 320 non-olfactory GPCRs (Homo sapiens, UniProt P30518)
[12] = biological target: panel of 320 non-olfactory GPCRs (Homo sapiens, UniProt Q5T6X5)
[13] = biological target: panel of 320 non-olfactory GPCRs (Homo sapiens, UniProt P41597)
[14] = biological target: panel of 320 non-olfactory GPCRs (Homo sapiens, UniProt Q13258)
[15] = biological target: panel of 320 non-olfactory GPCRs (Homo sapiens, UniProt P35367)
[16] = biological target: panel of 320 non-olfactory GPCRs (Homo sapiens, UniProt O15552)
[17] = biological target: panel of 320 non-olfactory GPCRs (Homo sapiens, UniProt Q9UNW8)
[18] = biological target: panel of 320 non-olfactory GPCRs (Homo sapiens, UniProt P46663)
[19] = biological target: panel of 320 non-olfactory GPCRs (Homo sapiens, UniProt P35408)
[20] = biological target: panel of 320 non-olfactory GPCRs (Homo sapiens, UniProt P21554)
[21] = biological target: panel of 320 non-olfactory GPCRs (Homo sapiens, UniProt Q96RI0)
[22] = biological target: panel of 320 non-olfactory GPCRs (Homo sapiens, UniProt Q8IZP9)
[23] = biological target: panel of 320 non-olfactory GPCRs (Homo sapiens, UniProt Q9NS75)
[24] = biological target: panel of 320 non-olfactory GPCRs (Homo sapiens, UniProt P34969)
[25] = biological target: panel of 320 non-olfactory GPCRs (Homo sapiens, UniProt P51677)
[26] = biological target: panel of 320 non-olfactory GPCRs (Homo sapiens, UniProt P46095)
[27] = biological target: panel of 320 non-olfactory GPCRs (Homo sapiens, UniProt Q9BZJ8)
[28] = biological target: panel of 320 non-olfactory GPCRs (Homo sapiens, UniProt Q92847)
[29] = biological target: panel of 320 non-olfactory GPCRs (Homo sapiens, UniProt O43194)
[30] = biological target: panel of 320 non-olfactory GPCRs (Homo sapiens, UniProt Q8IYL9)
[31] = biological target: panel of 320 non-olfactory GPCRs (Homo sapiens, UniProt Q99677)
[32] = biological target: panel of 320 non-olfactory GPCRs (Homo sapiens, UniProt P28566)
[33] = biological target: panel of 320 non-olfactory GPCRs (Homo sapiens, UniProt P43220)
[34] = biological target: panel of 320 non-olfactory GPCRs (Homo sapiens, UniProt Q96RI8)
[35] = biological target: panel of 320 non-olfactory GPCRs (Homo sapiens, UniProt P46093)
[36] = biological target: panel of 320 non-olfactory GPCRs (Homo sapiens, UniProt Q9GZN0)
[37] = biological target: panel of 320 non-olfactory GPCRs (Homo sapiens, UniProt P30411)

Chain of panel of 320 non-olfactory GPCRs (Homo sapiens, UniProt Q96RI8) (Q96RI8 whole entry): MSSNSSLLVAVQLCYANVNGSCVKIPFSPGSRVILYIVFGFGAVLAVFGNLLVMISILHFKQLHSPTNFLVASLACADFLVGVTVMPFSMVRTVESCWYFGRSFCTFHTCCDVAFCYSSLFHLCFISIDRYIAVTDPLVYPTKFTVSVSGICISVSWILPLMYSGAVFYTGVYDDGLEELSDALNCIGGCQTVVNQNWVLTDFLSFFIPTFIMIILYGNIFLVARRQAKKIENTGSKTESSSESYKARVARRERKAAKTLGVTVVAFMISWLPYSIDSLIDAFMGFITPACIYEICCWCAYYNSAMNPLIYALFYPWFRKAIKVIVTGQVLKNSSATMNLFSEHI
Chain of panel of 320 non-olfactory GPCRs (Homo sapiens, UniProt P46093) (P46093 whole entry): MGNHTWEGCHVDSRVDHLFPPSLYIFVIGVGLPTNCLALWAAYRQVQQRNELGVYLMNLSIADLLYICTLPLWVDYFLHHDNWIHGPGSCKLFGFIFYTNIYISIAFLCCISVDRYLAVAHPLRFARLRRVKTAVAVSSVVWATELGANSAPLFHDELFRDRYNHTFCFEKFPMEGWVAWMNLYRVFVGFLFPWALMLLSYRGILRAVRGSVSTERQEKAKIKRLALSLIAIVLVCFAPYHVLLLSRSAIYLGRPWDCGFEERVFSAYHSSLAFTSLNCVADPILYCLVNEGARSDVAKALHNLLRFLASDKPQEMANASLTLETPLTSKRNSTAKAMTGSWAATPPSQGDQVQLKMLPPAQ
Chain of panel of 320 non-olfactory GPCRs (Homo sapiens, UniProt P28566) (P28566 whole entry): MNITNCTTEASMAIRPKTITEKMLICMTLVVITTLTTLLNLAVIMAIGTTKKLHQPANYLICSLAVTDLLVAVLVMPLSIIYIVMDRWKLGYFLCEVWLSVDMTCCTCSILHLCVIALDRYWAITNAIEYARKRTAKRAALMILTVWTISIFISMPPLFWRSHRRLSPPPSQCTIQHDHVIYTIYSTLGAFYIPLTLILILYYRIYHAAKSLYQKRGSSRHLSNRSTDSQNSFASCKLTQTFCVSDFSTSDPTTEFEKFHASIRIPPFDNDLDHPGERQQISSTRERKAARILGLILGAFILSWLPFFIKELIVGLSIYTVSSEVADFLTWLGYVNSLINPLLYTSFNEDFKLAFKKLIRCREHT
Chain of panel of 320 non-olfactory GPCRs (Homo sapiens, UniProt P35367) (P35367 whole entry): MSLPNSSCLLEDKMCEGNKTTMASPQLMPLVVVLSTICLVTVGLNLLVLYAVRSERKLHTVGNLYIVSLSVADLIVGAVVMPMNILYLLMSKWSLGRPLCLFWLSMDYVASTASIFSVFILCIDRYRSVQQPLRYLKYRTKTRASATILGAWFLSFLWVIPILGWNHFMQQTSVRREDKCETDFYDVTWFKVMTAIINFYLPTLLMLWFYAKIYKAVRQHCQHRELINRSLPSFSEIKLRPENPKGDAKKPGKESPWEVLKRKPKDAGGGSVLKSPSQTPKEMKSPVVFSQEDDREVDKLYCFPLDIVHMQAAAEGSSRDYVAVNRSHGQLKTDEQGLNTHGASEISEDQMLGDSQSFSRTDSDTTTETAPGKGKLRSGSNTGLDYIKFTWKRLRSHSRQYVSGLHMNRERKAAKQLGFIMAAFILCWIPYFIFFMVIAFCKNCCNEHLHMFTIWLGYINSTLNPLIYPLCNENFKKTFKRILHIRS
Chain of panel of 320 non-olfactory GPCRs (Homo sapiens, UniProt Q8IYL9) (Q8IYL9 whole entry): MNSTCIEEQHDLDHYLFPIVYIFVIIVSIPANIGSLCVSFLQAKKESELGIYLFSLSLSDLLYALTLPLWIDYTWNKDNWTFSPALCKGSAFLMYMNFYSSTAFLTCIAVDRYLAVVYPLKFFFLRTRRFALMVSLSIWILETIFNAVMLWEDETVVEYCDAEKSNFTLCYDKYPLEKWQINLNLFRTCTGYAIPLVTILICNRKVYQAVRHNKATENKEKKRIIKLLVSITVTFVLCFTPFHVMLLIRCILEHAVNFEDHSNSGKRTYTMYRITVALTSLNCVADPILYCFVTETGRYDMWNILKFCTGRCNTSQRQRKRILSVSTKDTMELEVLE
Chain of panel of 320 non-olfactory GPCRs (Homo sapiens, UniProt Q15743) (Q15743 whole entry): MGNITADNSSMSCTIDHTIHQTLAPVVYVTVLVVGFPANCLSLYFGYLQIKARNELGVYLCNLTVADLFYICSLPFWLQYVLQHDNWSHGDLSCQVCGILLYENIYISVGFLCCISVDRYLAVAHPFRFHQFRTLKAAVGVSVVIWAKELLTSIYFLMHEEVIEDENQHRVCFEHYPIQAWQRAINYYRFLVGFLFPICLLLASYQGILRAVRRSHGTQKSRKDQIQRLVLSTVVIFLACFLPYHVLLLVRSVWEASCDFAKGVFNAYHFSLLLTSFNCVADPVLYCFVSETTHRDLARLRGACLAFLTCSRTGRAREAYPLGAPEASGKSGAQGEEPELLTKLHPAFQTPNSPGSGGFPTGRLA
Chain of panel of 320 non-olfactory GPCRs (Homo sapiens, UniProt P46095) (P46095 whole entry): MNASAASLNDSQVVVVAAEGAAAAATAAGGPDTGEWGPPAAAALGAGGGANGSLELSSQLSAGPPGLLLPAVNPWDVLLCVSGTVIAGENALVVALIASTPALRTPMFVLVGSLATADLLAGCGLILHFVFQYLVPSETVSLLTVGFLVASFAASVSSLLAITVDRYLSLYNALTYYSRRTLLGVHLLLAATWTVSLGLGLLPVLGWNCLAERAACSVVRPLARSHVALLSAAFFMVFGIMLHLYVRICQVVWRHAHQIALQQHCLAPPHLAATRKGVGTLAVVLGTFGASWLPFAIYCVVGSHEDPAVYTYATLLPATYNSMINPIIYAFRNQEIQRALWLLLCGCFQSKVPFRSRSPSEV
Chain of panel of 320 non-olfactory GPCRs (Homo sapiens, UniProt Q96P67) (Q96P67 whole entry): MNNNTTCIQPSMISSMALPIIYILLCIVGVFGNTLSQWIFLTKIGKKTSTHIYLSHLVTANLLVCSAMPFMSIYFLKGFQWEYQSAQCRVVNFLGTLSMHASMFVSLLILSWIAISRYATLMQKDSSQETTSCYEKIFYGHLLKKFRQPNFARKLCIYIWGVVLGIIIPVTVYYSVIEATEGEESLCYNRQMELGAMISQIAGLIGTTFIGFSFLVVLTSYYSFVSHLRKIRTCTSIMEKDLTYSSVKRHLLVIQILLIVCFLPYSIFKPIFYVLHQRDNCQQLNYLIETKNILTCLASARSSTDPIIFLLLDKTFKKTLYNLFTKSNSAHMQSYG
Chain of panel of 320 non-olfactory GPCRs (Homo sapiens, UniProt Q13258) (Q13258 whole entry): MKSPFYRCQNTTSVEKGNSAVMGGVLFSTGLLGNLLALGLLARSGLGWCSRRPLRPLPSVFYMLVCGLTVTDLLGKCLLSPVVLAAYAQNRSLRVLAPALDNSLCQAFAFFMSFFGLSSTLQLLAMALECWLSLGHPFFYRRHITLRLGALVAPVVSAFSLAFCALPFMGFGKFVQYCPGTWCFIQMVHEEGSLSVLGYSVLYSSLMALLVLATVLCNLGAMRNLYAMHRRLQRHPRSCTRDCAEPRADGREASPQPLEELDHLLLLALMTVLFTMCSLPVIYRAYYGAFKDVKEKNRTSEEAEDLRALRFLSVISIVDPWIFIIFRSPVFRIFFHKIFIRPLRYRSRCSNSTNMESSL
Chain of panel of 320 non-olfactory GPCRs (Homo sapiens, UniProt Q99677) (Q99677 whole entry): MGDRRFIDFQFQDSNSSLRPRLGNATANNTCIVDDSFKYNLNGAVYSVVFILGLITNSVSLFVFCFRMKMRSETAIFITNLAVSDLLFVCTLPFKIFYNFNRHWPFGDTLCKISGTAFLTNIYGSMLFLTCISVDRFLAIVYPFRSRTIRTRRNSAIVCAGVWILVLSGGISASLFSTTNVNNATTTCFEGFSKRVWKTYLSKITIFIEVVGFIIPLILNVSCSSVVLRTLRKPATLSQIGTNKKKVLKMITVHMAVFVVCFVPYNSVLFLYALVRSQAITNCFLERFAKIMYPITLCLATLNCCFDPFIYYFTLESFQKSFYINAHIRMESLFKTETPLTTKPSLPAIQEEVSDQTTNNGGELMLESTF
Chain of panel of 320 non-olfactory GPCRs (Homo sapiens, UniProt Q7Z7M1) (Q7Z7M1 whole entry): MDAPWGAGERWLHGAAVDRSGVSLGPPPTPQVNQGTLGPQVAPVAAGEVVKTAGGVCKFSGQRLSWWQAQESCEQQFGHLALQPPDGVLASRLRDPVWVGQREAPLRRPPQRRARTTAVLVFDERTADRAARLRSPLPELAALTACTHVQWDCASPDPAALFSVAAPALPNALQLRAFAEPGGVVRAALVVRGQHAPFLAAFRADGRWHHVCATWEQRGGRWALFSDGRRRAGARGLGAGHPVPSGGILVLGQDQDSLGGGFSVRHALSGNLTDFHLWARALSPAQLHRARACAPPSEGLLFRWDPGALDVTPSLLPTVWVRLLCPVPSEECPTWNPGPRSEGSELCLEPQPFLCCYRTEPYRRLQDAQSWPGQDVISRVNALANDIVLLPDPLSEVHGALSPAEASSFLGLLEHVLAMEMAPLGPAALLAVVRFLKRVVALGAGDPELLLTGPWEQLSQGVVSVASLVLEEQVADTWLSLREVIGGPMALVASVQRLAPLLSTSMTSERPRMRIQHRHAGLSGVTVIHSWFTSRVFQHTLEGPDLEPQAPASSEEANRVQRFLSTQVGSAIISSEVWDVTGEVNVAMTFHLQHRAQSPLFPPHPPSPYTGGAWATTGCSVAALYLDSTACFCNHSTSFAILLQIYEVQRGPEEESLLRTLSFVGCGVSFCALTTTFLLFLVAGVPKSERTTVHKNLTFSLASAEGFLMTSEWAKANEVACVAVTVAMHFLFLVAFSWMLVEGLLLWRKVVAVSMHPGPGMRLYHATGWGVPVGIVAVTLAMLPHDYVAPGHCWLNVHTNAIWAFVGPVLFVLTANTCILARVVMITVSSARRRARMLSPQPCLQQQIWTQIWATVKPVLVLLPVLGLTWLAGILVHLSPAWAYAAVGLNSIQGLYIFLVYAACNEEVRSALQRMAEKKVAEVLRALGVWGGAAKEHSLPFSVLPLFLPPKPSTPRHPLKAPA

SMILES: COC(=O)[C@@](C)(NC(=O)c1cc(C)n(-c2cccc(C(F)(F)F)c2)n1)c1cccs1 [‘1350]
- Fold of Basal RLU [1]: 1.2 fold and 1.1 fold and 1.3 fold
- Fold of Basal RLU [2]: 1.1 and 1.3 and 1.2
- Fold of Basal RLU [3]: 0.9 fold and 1 fold
- Fold of Basal RLU [4]: 1 fold and 1.1 fold
- Fold of Basal RLU [5]: 1.3 fold and 0.9 fold and 1.7 fold
- Fold of Basal RLU [6]: 1.1 fold and 0.8 fold and 0.9 fold
- Fold of Basal RLU [7]: 1.1 and 1 and 0.6 and 0.8
- Fold of Basal RLU [8]: 1.1 and 0.9 and 1.3 and 0.7
- Fold of Basal RLU [9]: 1.5 fold and 1 fold and 1.1 fold
- Fold of Basal RLU [10]: 1 fold and 1.4 fold and 0.8 fold
- Fold of Basal RLU [11]: 1.1 fold and 0.9 fold and 1.2 fold and 1.3 fold
- Fold of Basal RLU [12]: 0.7 fold and 0.9 fold and 1.1 fold
- Fold of Basal RLU [13]: 0.9 and 1.4 and 1
- Fold of Basal RLU [14]: 0.9 and 0.6 and 0.8
- Fold of Basal RLU [15]: 0.9 fold and 1 fold and 1.1 fold
- Fold of Basal RLU [16]: 0.9 and 1.2
- Fold of Basal RLU [17]: 0.8 fold and 1 fold
- Fold of Basal RLU [18]: 1.6 and 1.3 and 1.1
- Fold of Basal RLU [19]: 1.7 fold and 1.2 fold and 1.5 fold
- Fold of Basal RLU [20]: 5.2 and 4.9 and 5.3
- Fold of Basal RLU [21]: 1.5 and 1.6 and 1
- Fold of Basal RLU [22]: 1.1 fold and 1.2 fold and 0.9 fold and 0.7 fold
- Fold of Basal RLU [23]: 1.3 and 1.4 and 1.8
- Fold of Basal RLU [24]: 0.9 fold and 1.4 fold and 1 fold
- Fold of Basal RLU [25]: 0.9 fold and 1 fold and 1.2 fold
- Fold of Basal RLU [26]: 1.1 fold and 0.8 fold and 1 fold
- Fold of Basal RLU [27]: 1 and 0.7 and 0.9 and 0.8
- Fold of Basal RLU [28]: 1.4 fold and 1.8 fold and 1.6 fold
- Fold of Basal RLU [29]: 0.7 and 0.8 and 1
- Fold of Basal RLU [30]: 0.9 fold and 0.8 fold and 1 fold
- Fold of Basal RLU [31]: 1.3 and 1.1 and 1 and 0.9
- Fold of Basal RLU [32]: 1.3 fold and 1.5 fold and 1.2 fold
- Fold of Basal RLU [33]: 1.1 and 1 and 0.9 and 0.8
- Fold of Basal RLU [34]: 0.9 fold and 1.2 fold and 1.1 fold and 0.8 fold
- Fold of Basal RLU [35]: 1.1 fold and 0.9 fold and 1 fold
- Fold of Basal RLU [36]: 1.5 and 1.4 and 1.3
- Fold of Basal RLU [37]: 0.9 fold and 1 fold and 0.8 fold

SMILES: Cc1cc(C(=O)NC(C)(c2ccco2)c2ccco2)nn1-c1cccc(C(F)(F)F)c1 [‘4936]
- Fold of Basal RLU [1]: 1 fold and 1.3 fold and 1.2 fold
- Fold of Basal RLU [2]: 1.7 and 1.2 and 1.4 and 1.8
- Fold of Basal RLU [3]: 0.6 fold and 0.9 fold and 1 fold
- Fold of Basal RLU [4]: 1 fold and 0.9 fold
- Fold of Basal RLU [5]: 1.1 fold and 1.5 fold and 1.8 fold
- Fold of Basal RLU [6]: 1.2 fold and 1.3 fold
- Fold of Basal RLU [7]: 0.8 and 0.6 and 0.9
- Fold of Basal RLU [8]: 0.9 and 0.6 and 1.1
- Fold of Basal RLU [9]: 1.6 fold and 1.2 fold and 0.9 fold and 1 fold
- Fold of Basal RLU [10]: 1.9 fold and 1.8 fold and 1.7 fold and 1.6 fold
- Fold of Basal RLU [11]: 0.9 fold and 1.3 fold and 1.6 fold
- Fold of Basal RLU [12]: 0.9 fold and 1.1 fold and 0.6 fold and 1 fold
- Fold of Basal RLU [13]: 0.9 and 0.8 and 1
- Fold of Basal RLU [14]: 1.5 and 1.4 and 1.6 and 2.3
- Fold of Basal RLU [15]: 0.9 fold and 1.1 fold and 1.2 fold and 1.5 fold
- Fold of Basal RLU [16]: 1.3 and 1.4 and 1.2 and 1.1
- Fold of Basal RLU [17]: 1.2 fold and 0.9 fold
- Fold of Basal RLU [18]: 1.3 and 1.1 and 0.9 and 1.4
- Fold of Basal RLU [19]: 1.2 fold and 0.9 fold and 1 fold and 1.3 fold
- Fold of Basal RLU [20]: 5.5 and 5.4 and 5.6
- Fold of Basal RLU [21]: 1.2 and 1 and 0.8 and 0.9
- Fold of Basal RLU [22]: 0.8 fold and 0.6 fold and 1 fold
- Fold of Basal RLU [23]: 1.5 and 1.7 and 1.4 and 2.3
- Fold of Basal RLU [24]: 1 fold and 1.5 fold and 1.8 fold
- Fold of Basal RLU [25]: 1 fold and 0.9 fold and 1.4 fold
- Fold of Basal RLU [26]: 1.3 fold and 1 fold and 1.2 fold and 1.1 fold
- Fold of Basal RLU [27]: 0.9 and 0.8 and 1 and 1.1
- Fold of Basal RLU [28]: 1.3 fold and 2.2 fold and 1.6 fold
- Fold of Basal RLU [29]: 0.9 and 0.7 and 0.5
- Fold of Basal RLU [30]: 1.1 fold and 1 fold
- Fold of Basal RLU [31]: 1.5 and 1.4 and 1.3 and 1
- Fold of Basal RLU [32]: 1.4 fold and 1.3 fold and 1.5 fold and 2 fold
- Fold of Basal RLU [33]: 0.9 and 0.7
- Fold of Basal RLU [34]: 0.8 fold and 1.3 fold and 0.7 fold
- Fold of Basal RLU [35]: 0.9 fold and 1 fold and 0.8 fold
- Fold of Basal RLU [36]: 1.5 and 1.4 and 1.6
- Fold of Basal RLU [37]: 1.1 fold and 1.3 fold and 0.9 fold and 1.2 fold

Reference: publication PMC11882969 (Nature Communications, 2025)
